Laboratory results: US20020169123A1, “Regulating apoptosis in TRAIL-resistant cancer cells, while protecting normal, non-cancerous cells” (THE TRUSTEES OF THE UNIVERSITY OF PENNSYLVANIA, priority 2001, published 2002)

Experiments:
[1] = system: TRAIL-sensitive SW480 colon cancer cells; test: apoptosis-inducing activity of adenovirus-expressed TRAIL; format: cell-based, human; conditions: z-VAD-FMK 20 μM added 1 hour after onset of virus infection
Text: (§1) To make an adenovirus expressing extra-cellular portion of TRAIL (amino acids (Aa) 95 to 281), pAdTRACK/CMV and pAdEasy systems were used as previously described (He et al., Proc. Natl. Acad. Sci. USA 95:2509-2514 (1998)). In short, the extra-cellular portion of TRAIL was amplified by PCR (polymerase chain reaction). The amplified fragment was fused directly to the signal peptide of a mouse Ig κ chain, which is secreted into the media from the cells. Then, an isoleucine zipper (ILZ) fragment was inserted between the signal peptide and TRAIL to induce self-trimerization (Harbury et al., Science 262:1401-1407 (1993)). The final resulting construct was cloned into pAdTRACK/CMV, and then a recombinant plasmid was generated in BJ5183 E. coli by co-transforming PmeI-digested TRAIL-cloned pAdTRACK/CMV and pAdEASY.
(§2) The recombinant plasmid was digested with PacI, and was used for transfection into […] 293 cells using Superfect (QIAGEN, Valencia, Calif.). Approximately five (5) days after transfection, when comet-like patches of the green cells appeared, the cells were harvested. The viruses were amplified and purified as previously described (El-Deiry et al., Cell 75:817-825 (1993)). The infectivity of the viruses was checked by the observation of green fluorescence using a fluorescence microscope. […]

[2] = system: all cells, including cancer cells; test: protection from the killing effect of TRAIL by caspase inhibitors; format: cell-based; conditions: stated without experimental detail
[3] = system: EPC2 normal esophageal epithelial cells
Experimental: Normal human primary epithelial cells (EPC2, provided by Dr. Anil Rustgi, University of Pennsylvania) and primary human foreskin keratinocytes (HFK, provided by Dr. John C. Ansel, Emory University), were grown in Keratinocyte-SFM medium (Gibco BRL, Rockville, Md.) containing bovine pituitary extract (40 μg/mL) and epidermal growth factor (1 ng/mL). The primary epithelial cells were used at passage 4 or 5.
The N-terminal histidine (His) tagged recombinant human TRAIL (rhTRAIL, Thr-95 to Gly-281) was obtained from R&D Systems (Minneapolis, Minn.). A mouse monoclonal anti-6× His antibody (R&D Systems) was used for cross-linking the rhTRAIL. […] Cells were treated with TRAIL (50 ng/mL final concentration) and 1 μg/mL of anti-6× His (N-terrninal histidine antibody) for 4 hours or for 16 hours. The caspase inhibitor was used at a final concentration of 20 μM, and was added 2 hours prior to the addition of TRAIL. […] In the case of adriamycin, cells were pre-treated with adriamycin (0.5 μM final concentration) for 16 hours before the addition of TRAIL.
(§3) For detecting apoptosis mediated by TRAIL, an active-caspase 3 assay was performed using Cytofix/Cytoperm kit (Pharmingen, San Diego, Calif.), as previously described (Kim et al., Int. J. Oncol. 18:241-247 (2001)). Briefly, using standard techniques, 5×10^5 cells were seeded into a 6 well plate, after which, the cells were treated with TRAIL cross-linked with anti-6× His antibody. […] After washing, the cells were probed with 0.125 μg/μl of Phycoerythrin (PE)-conjugated goat anti-rabbit secondary antibody (Ab) (CALTAG Laboratories, Burlingame, Calif.) for 20 minutes in the dark. The intensity of PE was analyzed by flow cytometry using a Beckman-Coulter Epics Elite analyzer.

[4] = system: TRAIL-resistant HCE4, TE3, and TE5 cells; test: active-caspase 3 assay, adriamycin plus TRAIL; format: cell-based, human; conditions: z-LEHD-FMK 20 μM added 2 hours before TRAIL
Experimental: Cells were treated with TRAIL (50 ng/mL final concentration) and 1 μg/mL of anti-6× His (N-terrninal histidine antibody) for 4 hours or for 16 hours. The caspase inhibitor was used at a final concentration of 20 μM, and was added 2 hours prior to the addition of TRAIL. When the cells were treated with both cycloheximide (CHX) and TRAIL, CHX (10 μg/mL final concentration) was added 6 hours before the addition of TRAIL. In the case of adriamycin, cells were pre-treated with adriamycin (0.5 μM final concentration) for 16 hours before the addition of TRAIL.
as §3
Accordingly, adriamycin was tested to determine whether its combination with TRAIL could induce synergistic cell killing in TRAIL-resistant esophageal cancer cells. TRAIL-resistant HCE4, TE3, and TE5 cells were pre-treated with 0.5 μM adriamycin for 16 hours, followed by incubation for 4 hours in the presence of TRAIL. z-LEHD-FMK (20 μM final concentration) was added 2 hours before the addition of TRAIL. An active-caspase 3 assay was used to determine whether apoptosis occurred.
Next, z-LEHD-FMK was tested in the HCE4, TE3 and TE5 cells to determine the protective effect of z-LEHD-FMK, if any, on the synergistic cell death driven by the combination of adriamycin with TRAIL.

[5] = system: normal esophageal epithelial EPC2 cells; test: effect of Ad-ILZ-TR derived TRAIL; format: cell-based; conditions: EPC2 cells in the presence of z-LEHD-FMK
Text: as §1, §2

[6] = system: EPC2-GFP and TRAIL-sensitive TE2 mixed culture; test: active-caspase 3 assay in mixed culture; format: cell-based, human; conditions: TRAIL 4 hours with z-LEHD-FMK
Experimental: Finally, to confirm the observation that there was preferential protection of z-LEHD-FMK on normal esophageal epithelial cells in TRAIL-mediated apoptosis, but no similar protection afforded to TRAIL-sensitive esophageal cancer cells, both EPC2-GFP (2×10^5 cells) and TRAIL-sensitive TE2 (5×10^5 cells) were grown as a mixed culture in a 6-well plate. The cells were treated with TRAIL for 4 hours in the presence, or absence, of z-LEHD-FMK. An active-caspase 3 assay was performed, and the two populations within the mixed-cells were distinguished by the presence (EPC2-GFP), or absence (TE2), of GFP. […] Experiments were done in duplicate (mean value±SD).

[7] = system: TRAIL-sensitive esophageal cancer cells; test: active-caspase 3 assay, effect of z-LEHD-FMK on TRAIL-sensitive cancer cells; format: cell-based, human; conditions: extent of apoptosis slightly reduced
Experimental: Next, to determine the effect of z-LEHD-FMK on TRAIL-sensitive esophageal cancer cells (i.e., could z-LEHD-FMK also protect TRAIL-sensitive esophageal cancer cells from apoptosis), an active-caspase 3 assay was performed, as described above in the assay shown in FIG. 4A.

[8] = system: normal human hepatocytes; conditions: Ozoren et al., 2000; cited from earlier work

## z-VAD-FMK
[1]
  cleavage of caspase 3 and PARP in Ad-ILZ-TR infected cells with inhibitor: no cleavage was observed
[2]
  protection from the killing effect of TRAIL: protect all cells, including cancer cells, from the killing effect of TRAIL

## z-LEHD-FMK (HELM PEPTIDE1{[O=C(OCc1ccccc1)[*:2]].L.E.H.D.[FC[*:1]]}$$$$V2.0; SMILES CC(C)C[C@H](NC(=O)OCc1ccccc1)C(=O)N[C@@H](CCC(=O)O)C(=O)N[C@@H](Cc1c[nH]cn1)C(=O)N[C@@H](CC(=O)O)C(=O)CF)
[3]; EPC2 cells in the presence of z-LEHD-FMK
  protection from cell killing by TRAIL plus adriamycin: almost completely protected from cell killing
[3]; EPC2 cells, TRAIL 50 ng/mL 4 hours, z-LEHD-FMK 20 μM added 2 hours before TRAIL
  protection from TRAIL-mediated apoptosis: completely protected
[4]; HCE4 cells
  effect of z-LEHD-FMK on cell death by adriamycin plus TRAIL: still killed in a synergistic way
[4]; TE3 and TE5 cells
  effect of z-LEHD-FMK on cell death by adriamycin plus TRAIL: almost completely blocked cell death
[5]
  protection from cell death by Ad-ILZ-TR derived TRAIL: completely protected from cell death
[6]; mixed culture with EPC2-GFP
  TRAIL-mediated apoptosis in presence of z-LEHD-FMK, TE2 population: continued to undergo apoptosis
[6]; mixed culture with TE2
  protection from TRAIL-mediated apoptosis, EPC2-GFP population: almost completely protected
[7]
  effect of z-LEHD-FMK on TRAIL-mediated apoptosis: still underwent apoptosis
[8]
  rescue from TRAIL-mediated apoptosis: could rescue normal human hepatocytes
